Measured values reported in PubChem BioAssay AID1919010 (Molecular Pharmacology Branch, DTP, NCI, 2023).
Each block holds one compound with its values, some of them ahead of it.

Test system: Hs578T complex spheroid growth, percent test/control
Test: Anticancer human tumor Hs578T cell line growth inhibition [AhR];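 note: luminescent viability signal as a proxy for spheroid growth; spheroids exposed to agents for one week after three days of growth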
Conditions: for IC50: curve of first compound; for viability, T/C: stronger effect = lower value
How it was run: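 Complex tumor spheroids co-cultured with HUVEC and human MSC stroma; AhR antagonists tested in combination with standard-of-care and investigational agents. Top concentration at or near clinical Cmax (else 10 microM), half-log dilutions; growth expressed as percent test/control.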

[1] = second compound 0.1 µM, first compound 0.0316 µM
[2] = second compound 0.1 µM, first compound 0.1 µM
[3] = second compound 0.1 µM, first compound 0.316 µM
[4] = second compound 0.1 µM, first compound 1 µM
[5] = second compound 0.316 µM, first compound 0.0316 µM
[6] = second compound 0.316 µM, first compound 0.1 µM
[7] = second compound 0.316 µM, first compound 0.316 µM
[8] = second compound 0.316 µM, first compound 1 µM
[9] = second compound 1 µM, first compound 0.0316 µM
[10] = second compound 1 µM, first compound 0.1 µM
[11] = second compound 1 µM, first compound 0.316 µM
[12] = second compound 1 µM, first compound 1 µM
[13] = second compound 3.16 µM, first compound 0.0316 µM
[14] = second compound 3.16 µM, first compound 0.1 µM
[15] = second compound 3.16 µM, first compound 0.316 µM
[16] = second compound 3.16 µM, first compound 1 µM
[17] = second compound 10 µM, first compound 0.0316 µM
[18] = second compound 10 µM, first compound 0.1 µM
[19] = second compound 10 µM, first compound 0.316 µM
[20] = second compound 10 µM, first compound 1 µM

- IC50 (second compound 0.1 µM): 526 nM
- IC50 (second compound 0.316 µM): 778 nM
- IC50 (second compound 1 µM): 615 nM
- IC50 (second compound 3.16 µM): 384 nM
- IC50 (second compound 10 µM): 860 nM
SMILES: CC1COCCN1c1cc(-c2ccnn2C)c2ccnc(-c3ccn[nH]3)c2n1 (stereo not given) + CC(CO)NC(=O)c1cc(-c2ccc(Cl)cc2)nn(-c2cnn(C)c2)c1=O
- viability, T/C (second compound 0.1 µM, first compound 0.00316 µM): 118%
- viability, T/C (second compound 0.1 µM, first compound 0.01 µM): 117%
- viability, T/C [1]: 114%
- viability, T/C [2]: 91.9%
- viability, T/C [3]: 53.6%
- viability, T/C [4]: 45.4%
- viability, T/C (second compound 0.316 µM, first compound 0.00316 µM): 133%
- viability, T/C (second compound 0.316 µM, first compound 0.01 µM): 124%
- viability, T/C [5]: 112%
- viability, T/C [6]: 96%
- viability, T/C [7]: 59.7%
- viability, T/C [8]: 47.8%
- viability, T/C (second compound 1 µM, first compound 0.00316 µM): 123%
- viability, T/C (second compound 1 µM, first compound 0.01 µM): 126%
- viability, T/C [9]: 122%
- viability, T/C [10]: 89.8%
- viability, T/C [11]: 56.2%
- viability, T/C [12]: 45.5%
- viability, T/C (second compound 3.16 µM, first compound 0.00316 µM): 121%
- viability, T/C (second compound 3.16 µM, first compound 0.01 µM): 122%
- viability, T/C [13]: 121%
- viability, T/C [14]: 86.9%
- viability, T/C [15]: 51.6%
- viability, T/C [16]: 46.2%
- viability, T/C (second compound 10 µM, first compound 0.00316 µM): 121%
- viability, T/C (second compound 10 µM, first compound 0.01 µM): 124%
- viability, T/C [17]: 115%
- viability, T/C [18]: 74.5%
- viability, T/C [19]: 57.6%
- viability, T/C [20]: 45.9%

- IC50 (second compound 0.1 µM): 177 nM
- IC50 (second compound 0.316 µM): 184 nM
- IC50 (second compound 1 µM): 165 nM
- IC50 (second compound 3.16 µM): 171 nM
- IC50 (second compound 10 µM): 84.5 nM
SMILES: O=C(C=Cn1cnc(-c2cc(C(F)(F)F)cc(C(F)(F)F)c2)n1)NNc1cnccn1 + Cc1ccccc1N=Nc1ccc(NC(=O)c2ccnn2C)c(C)c1
- viability, T/C (second compound 0.1 µM, first compound 0.00949 µM): 85%
- viability, T/C (second compound 0.1 µM, first compound 0.03 µM): 90.5%
- viability, T/C (second compound 0.1 µM, first compound 0.0949 µM): 72.8%
- viability, T/C (second compound 0.1 µM, first compound 0.3 µM): 30.3%
- viability, T/C (second compound 0.1 µM, first compound 0.949 µM): 11.2%
- viability, T/C (second compound 0.1 µM, first compound 3 µM): 10.7%
- viability, T/C (second compound 0.316 µM, first compound 0.00949 µM): 91.6%
- viability, T/C (second compound 0.316 µM, first compound 0.03 µM): 88.5%
- viability, T/C (second compound 0.316 µM, first compound 0.0949 µM): 76.9%
- viability, T/C (second compound 0.316 µM, first compound 0.3 µM): 30.3%
- viability, T/C (second compound 0.316 µM, first compound 0.949 µM): 8.26%
- viability, T/C (second compound 0.316 µM, first compound 3 µM): 10.9%
- viability, T/C (second compound 1 µM, first compound 0.00949 µM): 87%
- viability, T/C (second compound 1 µM, first compound 0.03 µM): 82.5%
- viability, T/C (second compound 1 µM, first compound 0.0949 µM): 68.8%
- viability, T/C (second compound 1 µM, first compound 0.3 µM): 30.2%
- viability, T/C (second compound 1 µM, first compound 0.949 µM): 10.4%
- viability, T/C (second compound 1 µM, first compound 3 µM): 13.2%
- viability, T/C (second compound 3.16 µM, first compound 0.00949 µM): 84%
- viability, T/C (second compound 3.16 µM, first compound 0.03 µM): 79.8%
- viability, T/C (second compound 3.16 µM, first compound 0.0949 µM): 70.7%
- viability, T/C (second compound 3.16 µM, first compound 0.3 µM): 30.8%
- viability, T/C (second compound 3.16 µM, first compound 0.949 µM): 9.79%
- viability, T/C (second compound 3.16 µM, first compound 3 µM): 13%
- viability, T/C (second compound 10 µM, first compound 0.00949 µM): 68%
- viability, T/C (second compound 10 µM, first compound 0.03 µM): 64.2%
- viability, T/C (second compound 10 µM, first compound 0.0949 µM): 47%
- viability, T/C (second compound 10 µM, first compound 0.3 µM): 29.6%
- viability, T/C (second compound 10 µM, first compound 0.949 µM): 11.9%
- viability, T/C (second compound 10 µM, first compound 3 µM): 12.1%

- IC50 (second compound 0.1 µM): 914 nM
- IC50 (second compound 0.316 µM): 995 nM
- IC50 (second compound 1 µM): 1240 nM
- IC50 (second compound 3.16 µM): 2010 nM
- IC50 (second compound 10 µM): 2320 nM
SMILES: NS(=O)(=O)OCC1CC(n2ccc3c(NC4CCc5ccccc54)ncnc32)CC1O (stereo not given) + CC(CO)NC(=O)c1cc(-c2ccc(Cl)cc2)nn(-c2cnn(C)c2)c1=O
- viability, T/C [1]: 104%
- viability, T/C [2]: 95.3%
- viability, T/C [3]: 69.9%
- viability, T/C [4]: 47.6%
- viability, T/C (second compound 0.1 µM, first compound 3.16 µM): 41.4%
- viability, T/C (second compound 0.1 µM, first compound 10 µM): 33%
- viability, T/C [5]: 114%
- viability, T/C [6]: 81%
- viability, T/C [7]: 75%
- viability, T/C [8]: 50%
- viability, T/C (second compound 0.316 µM, first compound 3.16 µM): 30.1%
- viability, T/C (second compound 0.316 µM, first compound 10 µM): 29.4%
- viability, T/C [9]: 109%
- viability, T/C [10]: 90.6%
- viability, T/C [11]: 77.9%
- viability, T/C [12]: 52.7%
- viability, T/C (second compound 1 µM, first compound 3.16 µM): 34.7%
- viability, T/C (second compound 1 µM, first compound 10 µM): 27.8%
- viability, T/C [13]: 119%
- viability, T/C [14]: 91.3%
- viability, T/C [15]: 90.2%
- viability, T/C [16]: 55.9%
- viability, T/C (second compound 3.16 µM, first compound 3.16 µM): 41.6%
- viability, T/C (second compound 3.16 µM, first compound 10 µM): 34.8%
- viability, T/C [17]: 95.1%
- viability, T/C [18]: 96.6%
- viability, T/C [19]: 88.9%
- viability, T/C [20]: 65.2%
- viability, T/C (second compound 10 µM, first compound 3.16 µM): 44.1%
- viability, T/C (second compound 10 µM, first compound 10 µM): 40.8%
